Read-outs that look alike come from different tables or passages of the source.

The record followed here is US11123355B2, “Antiviral benzyl-amine phosphodiamide compounds” (Merck Sharp & Dohme Corp., priority 2016, dated 2021).

A short description of data set [1]: Prodrug Stability Assay in Bio-Relevant Media (FaSSIF with Pancreatin). Particulars: 0.5 mg/mL Pancreatin in FaSSIF, 37° C.; HPLC peak area of prodrug at 5 h divided by that at 0 h. The class given is in vitro ADME. The procedure:
Prodrug Stability Assay in Bio-Relevant Media
The following assay was employed to evaluate the stability of the prodrugs in simulated gastrointestinal tract conditions. Preparation of fasted state simulated intestinal fluid (FaSSIF) using Phares SIF Powder was carried out according to protocols from Phare Drug Delivery AG (Baselland, Switzerland). For sample preparation, 10 μL stock solutions (10 mM) of prodrug substance in DMSO was added to 990 μL of 0.5 mg/mL Pancreatin solution (Fisher CAS #8049-47-6) in FaSSIF. Two samples were prepared for each compound. If the sample was a clear solution, it was directly analyzed by HPLC. If the sample was not clear, the sample was diluted with 100% MeCN, maintained at 37° C. and observed 5 h later. If the sample was clear, HPLC analysis was directly performed. If the sample was still not clear, the sample was diluted with 100% ACN and assayed by HPLC. All the samples were vortexed for 3 min and observed before injection. For the diluted samples, the area is multiplied by a dilution factor when the data is analyzed. The analysis was carried out with an Agilent 1100 series HPLC with autosampler. The column was a Poroshell 120 EC-C18, 4.6×50 mm, 2.7 μm. The flow rate was 1.8 mL/min, and the injection volume was 5 or 10 μL. UV detection was in the range 210-400 nm. The mobile phase consisted of solvent A (water plus 10 mM tetrabutylammonium bromide) and solvent B (acetonitrile) with a gradient of: 90% solvent A at 0 min, changing to 95% solvent B over 6 min, maintaining for 1.5 min, then reverting to 90% solvent A over 1.6 min. The HPLC peak area of the prodrug at 5 h was divided by the HPLC peak area of the prodrug at 0 h, to generate the % claimed parent ratio, which is summarized in Table 2 for gastrointestinal (GI) Tract stability.

The next data set concerns HIV-1 (H9/IIB strain). Briefly: Multiple Round HIV-1 Infection Assay (Viking Assay) in MT4-GFP cells. The class given is cell-based. Particulars: inhibition of reproductive ratio R0. A digest of the protocol:
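MT-4 cells with tat/rev-dependent GFP reporter infected overnight with virus at MOI ~0.01, then incubated in RPMI with 10% or 50% normal human serum with 10-point 3-fold dilutions (typically 8.4 μM–0.42 nM final). Green cells counted at ~48 and ~72 h to give R0; IC50 from 4-parameter fit of R0 inhibition.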

The nature of data set [2]: Pharmacokinetic Studies in Dogs - In Vivo Dog PK. Particulars: dog PBMCs at 24 h following a 10 mg/kg P.O. dose of the prodrug. Set-up: species or system beagle dogs. Here is the method: Pharmacokinetic Studies in Dogs—In Vivo Dog PK
Prodrugs were administered to beagle dogs through intravenous (IV) and oral (P.O.) administrations in a non-crossover manner. The IV dose was prepared in 20% hydroxypropyl β-cyclodextrin (HPBCD) or polyethylene glycol 200:ethanol:water (70:10:20 v/v/v). The dose was administered via cephalic or saphenous vein. The P.O. dose was prepared in 10% polysorbate 80 (Tween 80) and was administered via gavage.
Blood samples were serially collected following dose administration for up to 48 hr and plasma was separated by centrifugation. The concentrations of prodrugs in dog plasma were determined by a LC-MS/MS assay following a protein precipitation step and addition of an appropriate internal standard (labetalol, imipramine or diclofenac). Quantification was done by determining peak area-ratios of the prodrugs and tenofovir to the internal standard. Additional blood sample(s) was collected following dose administration for up to 24 hr. […] The concentrations of tenofovir and/or its phosphate conjugate(s) in PBMCs were determined by an LC-MS/MS assay following a protein precipitation step and addition of an appropriate internal standard (labetalol, imipramine or diclofenac). Quantification was done by determining peak area-ratios of tenofovir and/or its phosphate conjugate(s) to the internal standard.
Pharmacokinetic parameters were obtained using non-compartmental methods (Watson®). The area under the plasma concentration-time curve (AUC0-t) was calculated from the first time point (0 min) up to the last time point with measurable drug concentration using the linear trapezoidal or linear/log-linear trapezoidal rule. The IV plasma clearance was calculated by dividing the dose by AUC0-inf. The terminal half-life of elimination was determined by unweighted linear regression analysis of the log-transformed data. […] The volume of distribution at steady state (Vdss) was obtained from the product of plasma clearance and mean residence time (determined by dividing the area under the first moment curve by the area under the curve). […]

Setting [3] is: MT4-GFP cells infected with HIV-1, 10% normal human serum, read-out: Viking, IC50 (10% NHS).
[4] abbreviates: MT4-GFP cells infected with HIV-1, 50% normal human serum, read-out: Viking, IC50 (50% NHS).

Regarding `CCCOC(=O)C(C)(C)N[P@@](=O)(CO[C@H](C)Cn1cnc2c(N)ncnc21)N[C@H](c1ccc(OC(F)(F)F)cc1)C(F)(F)F` (single isomer, unassigned) [Example 27A], the “GI Tract stability (%)” value in data set [1] was determined as 79.5%. Moreover, the IC50 – broadly, the midpoint of a concentration-inhibition curve – in the data set with HIV-1 (H9/IIB strain) (setting [3]) was determined as 1.4 nM; with HIV-1 (H9/IIB strain) (setting [4]), 6.7 nM. Further, the “In Vivo Dog PK (μM): TFV-DP concentrations in dog PBMCs” value in data set [2] stood at 0.8 µM.

For `CCCOC(=O)C(C)(C)NP(=O)(CO[C@H](C)Cn1cnc2c(N)ncnc21)N[C@H](c1cccc(OC)c1)C(F)(F)F` (stereo partly drawn) [Example 25A, propyl 2-(((R)-((((R)-1-(6-amino-9H-purin-9-yl)propan-2-yl)oxy)methyl)(((R)-2,2,2-trifluoro-1-(3-methoxyphenyl)ethyl)amino)phosphoryl)a-mino)-2-methylpropanoate and propyl 2-(((S)-((((R)-1-(6-amino-9H-purin-9-yl)propan-2-yl)oxy)methyl)(((R)-2,2,2-trifluoro-1-(3-methoxyphenyl)ethyl)amino)phosphoryl)a-mino)-2-methylpropanoate], in data set [1], the “GI Tract stability (%)” value is given as 70.3%. For the same molecule, the figures for the IC50 in the data set with HIV-1 (H9/IIB strain) (setting [3]) and with HIV-1 (H9/IIB strain) (setting [4]) were 4.6 nM and 54 nM, respectively.

For `CCCOC(=O)C(C)(C)N[P@@](=O)(CO[C@H](C)Cn1cnc2c(N)ncnc21)N[C@H](C)c1ccc(Cl)cc1C` [Example 29B, propyl 2-(((R)-((((R)-1-(6-amino-9H-purin-9-yl)propan-2-yl)oxy)methyl)(((R)-1-(4-chloro-2-methylphenyl)ethyl)amino)phosphoryl)ami-no)-2-methylpropanoate and propyl 2-(((S)-((((R)-1-(6-amino-9H-purin-9-yl)propan-2-yl)oxy)methyl)(((R)-1-(4-chloro-2-methyphenyl)ethyl)amino)phosphoryl)ami-no)-2-methylpropanoate], in data set [1], the “GI Tract stability (%)” value is 12.1%. Also, the IC50 was 2.5 nM with HIV-1 (H9/IIB strain) (setting [3]) and 21 nM with HIV-1 (H9/IIB strain) (setting [4]).

As to `CCCOC(=O)C(C)(C)NP(=O)(CO[C@H](C)Cn1cnc2c(N)ncnc21)N[C@H](C)c1ccc(C#N)cc1` (stereo partly drawn) [Example 31B, propyl 2-(((R)-((((R)-1-(6-amino-9H-purin-9-yl)propan-2-yl)oxy)methyl)(((R)-1-(4-cyanophenyl)ethyl)amino)phosphoryl)ami-no)-2-methylpropanoate and propyl 2-(((S)-((((R)-1-(6-amino-9H-purin-9-yl)propan-2-yl)oxy)methyl)(((R)-1-(4-cyanophenyl)ethyl)amino)phosphoryl)ami-no)-2-methylpropanoate], the “GI Tract stability (%)” value in data set [1] was 90.6%. Moreover, the figures for the half-inhibitory concentration (IC50) with HIV-1 (H9/IIB strain) (setting [3]) and in the data set with HIV-1 (H9/IIB strain) (setting [4]) were 8.8 nM and 110 nM, respectively.

On to `CCCOC(=O)C(C)(C)N[P@](=O)(CO[C@H](C)Cn1cnc2c(N)ncnc21)N(C)[C@H](C)c1ccc(OC(F)(F)F)cc1` [Example 33B, propyl 2-(((R)-((((R)-1-(6-amino-9H-purin-9-yl)propan-2-yl)oxy)methyl)(methyl((R)-1-(4-(trifluoromethoxy)phenyl)ethyl)amino)phos-phoryl)amino)-2-methylpropanoate and propyl 2-(((S)-((((R)-1-(6-amino-9H-purin-9-yl)propan-2-yl)oxy)methyl)(methyl((R)-1-(4-(trifluoromethoxy)phenyl)ethyl)amino)phos-phoryl)amino)-2-methylpropanoate], for which, in data set [1], the “GI Tract stability (%)” value came out at 97.2%. The results for the IC50 in the data set on HIV-1 (H9/IIB strain) (setting [3]) and with HIV-1 (H9/IIB strain) (setting [4]) were 2.2 nM and 7.1 nM, respectively.

With `CC(C)OC(=O)C(C)(C)NP(=O)(CO[C@H](C)Cn1cnc2c(N)ncnc21)N[C@H](C)c1ccc(OC(F)(F)F)cc1` (stereo partly drawn) [Example 34B, isopropyl 2-(((R)-((((R)-1-(6-amino-9H-purin-9-yl)propan-2-yl)oxy)methyl)(((R)-1-(4-(trifluoromethoxy)phenyl)ethyl)amino)phos-phoryl)amino)-2-methylpropanoate and isopropyl 2-(((S)-((((R)-1-(6-amino-9H-purin-9-yl)propan-2-yl)oxy)methyl)(((R)-1-(4-(trifluoromethoxy)phenyl)ethyl)amino)phos-phoryl)amino)-2-methylpropanoate], the “GI Tract stability (%)” value in data set [1] is recorded as 67.4%. Besides, the concentration for half-maximal inhibition (IC50) in the data set on HIV-1 (H9/IIB strain) (setting [3]) came out at 1.5 nM; in the data set on HIV-1 (H9/IIB strain) (setting [4]), 7.9 nM.

`CC(C)OC(=O)C(C)(C)N[P@@](=O)(CO[C@H](C)Cn1cnc2c(N)ncnc21)N[C@H](C)c1ccc(Cl)cc1` [Example 35B, isopropyl 2-(((R)-((((R)-1-(6-amino-9H-purin-9-yl)propan-2-yl)oxy)methyl)(((R)-1-(4-chlorophenyl)ethyl)amino)phosphoryl)ami-no)-2-methylpropanoate and isopropyl 2-(((S)-((((R)-1-(6-amino-9H-purin-9-yl)propan-2-yl)oxy)methyl)(((R)-1-(4-chlorophenyl)ethyl)amino)phosphoryl)ami-no)-2-methylpropanoate]: the “GI Tract stability (%)” value in data set [1] turned out to be 70.5%. Moreover, the half-maximal inhibitory concentration (IC50) with HIV-1 (H9/IIB strain) (setting [3]) is 2.9 nM; in the data set on HIV-1 (H9/IIB strain) (setting [4]), 22 nM.

Take `CC(C)OC(=O)C(C)(C)N[P@@](=O)(CO[C@H](C)Cn1cnc2c(N)ncnc21)NC1(c2ccc(Cl)cc2)CC1` [Example 37B, isopropyl 2-(((R)-((((R)-1-(6-amino-9H-purin-9-yl)propan-2-yl)oxy)methyl)((1-(4-chlorophenyl)cyclopropyl)amino)phos-phoryl)amino)-2-methylpropanoate and isopropyl 2-(((S)-((((R)-1-(6-amino-9H-purin-9-yl)propan-2-yl)oxy)methyl)((1-(4-chlorophenyl)cyclopropyl)amino)phos-phoryl)amino)-2-methylpropanoate]: in data set [1], the “GI Tract stability (%)” value is on record as 21.1%. For the same molecule, the concentration for half-maximal inhibition (IC50) in the data set with HIV-1 (H9/IIB strain) (setting [3]) was 5.1 nM; with HIV-1 (H9/IIB strain) (setting [4]) it was 30 nM.

Consider “isopropyl 2-(((R)-((((R)-1-(6-amino-9H- purin-9-yl)propan-2-yl)oxy)methyl)((2-(4- chlorophenyl)propan-2- yl)amino)phosphoryl)amino)-2- methylpropanoate and isopropyl 2-(((S)-((((R)-1-(6-amino-9H- purin-9-yl)propan-2-yl)oxy)methyl)((2-(4- chlorophenyl)propan-2- yl)amino)phosphoroyl)amino)-2- methylpropanoate [Example 36A]”, for which the “GI Tract stability (%)” value in data set [1] is given as 20.2%. Further, the IC50 with HIV-1 (H9/IIB strain) (setting [3]) amounted to 3.2 nM; in the data set on HIV-1 (H9/IIB strain) (setting [4]) it was 37 nM.

As for “propyl 2-(((R)-((((R)-1-(6-amino-9H-purin- 9-yl)propan-2-yl)oxy)methyl)(((R)-2,2,2- trifluoro-1-(p- tolyl)ethyl)amino)phosphoryl)amino)-2- methylpropanoate and propyl 2-(((S)-((((R)-1-(6-amino-9H-purin- 9-yl)propan-2-yl)oxy)methyl)(((R)-2,2,2- trifluoro-1-(p- tolyl)ethyl)amino)phosphoryl)amino)-2- methylpropanoate [Example 26A]”, in data set [1], the “GI Tract stability (%)” value came out at 75.3%. For the same molecule, the figures for the IC50 in the data set on HIV-1 (H9/IIB strain) (setting [3]) and in the data set on HIV-1 (H9/IIB strain) (setting [4]) were 4.7 nM and 45 nM, respectively.
